Data on three compounds can be found in the NIST ThermoML archive (doi:10.1021/je7007523).

Where “and” joins values, the source holds several entries; their conditions need not be identical. Identical values can stand only once. Numbers after ± are expanded uncertainties.

For this data set the following is noted: 313.15 K; Liquid; Ebulliometric method (Recirculating still).

For orientation: vapor or sublimation pressure means the pressure of vapour in equilibrium with the condensed phase.

As for `C=CCCCC` [hex-1-ene], the “vapor or sublimation pressure” value amounted to 44.95 ± 0.22 kPa.

Consider `C1CCCCC1` [cyclohexane], for which the “vapor or sublimation pressure” value is 24.61 ± 0.14 kPa and 24.62 ± 0.14 kPa. `CCCCCCC` [heptane]: the “vapor or sublimation pressure” value was 12.33 ± 0.088 kPa and 12.33 ± 0.087 kPa.
